Laboratory results as given in patent US10259810B2, “N-sulfonylated pyrazolo[3,4-b]pyridin-6-carboxamides and method of use” (AbbVie S.à.r.l., priority 2015, dated 2019).

Columns and labels:
ΔF508-CFTR [1] = biological target: T1, ΔF508-CFTR (Homo sapiens, UniProt P13569, DEL508-508); assay: CFTR cell surface levels using HRP-tagged ΔF508-CFTR expressing CFBE cells, in the presence of a co-corrector; type: cell-based
T1 construct: host or cells: CFBE41o-, doxycycline-inducible
How it was run: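 Chemiluminescent read-out of surface HRP (15 min, dark) after PBS washes. Activity is normalized as 100×(sample−DMSO)/(3 μM co-corrector alone−DMSO).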

ΔF508-CFTR [2] = biological target: T1, ΔF508-CFTR; assay: CFTR cell surface levels using HRP-tagged ΔF508-CFTR expressing CFBE cells, intrinsic corrector capacity; type: cell-based; set-up: % Activation: concentration or dose not given beside the values
How it was run: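 Read-out: chemiluminescent HRP activity of ECL4-HRP-tagged ΔF508-CFTR at the cell surface, 15 min substrate in dark. Normalized as 100×(sample−DMSO)/(positive control−DMSO).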

[3] = HRP-tagged ΔF508-CFTR CFBE cells, in the presence of 3 μM co-corrector
[4] = HRP-tagged ΔF508-CFTR CFBE cells, in the presence of 3 μM co-corrector, read-out: EC50
[5] = HRP-tagged ΔF508-CFTR expressing CFBE41o- cells, compound alone (intrinsic corrector capacity), 20 hours at 33° C.
[6] = HRP-tagged ΔF508-CFTR expressing CFBE41o- cells, compound alone (intrinsic corrector capacity), 20 hours at 33° C., read-out: EC50

T1 sequence (P13569 with tags, fused parts or gaps DEL508-508): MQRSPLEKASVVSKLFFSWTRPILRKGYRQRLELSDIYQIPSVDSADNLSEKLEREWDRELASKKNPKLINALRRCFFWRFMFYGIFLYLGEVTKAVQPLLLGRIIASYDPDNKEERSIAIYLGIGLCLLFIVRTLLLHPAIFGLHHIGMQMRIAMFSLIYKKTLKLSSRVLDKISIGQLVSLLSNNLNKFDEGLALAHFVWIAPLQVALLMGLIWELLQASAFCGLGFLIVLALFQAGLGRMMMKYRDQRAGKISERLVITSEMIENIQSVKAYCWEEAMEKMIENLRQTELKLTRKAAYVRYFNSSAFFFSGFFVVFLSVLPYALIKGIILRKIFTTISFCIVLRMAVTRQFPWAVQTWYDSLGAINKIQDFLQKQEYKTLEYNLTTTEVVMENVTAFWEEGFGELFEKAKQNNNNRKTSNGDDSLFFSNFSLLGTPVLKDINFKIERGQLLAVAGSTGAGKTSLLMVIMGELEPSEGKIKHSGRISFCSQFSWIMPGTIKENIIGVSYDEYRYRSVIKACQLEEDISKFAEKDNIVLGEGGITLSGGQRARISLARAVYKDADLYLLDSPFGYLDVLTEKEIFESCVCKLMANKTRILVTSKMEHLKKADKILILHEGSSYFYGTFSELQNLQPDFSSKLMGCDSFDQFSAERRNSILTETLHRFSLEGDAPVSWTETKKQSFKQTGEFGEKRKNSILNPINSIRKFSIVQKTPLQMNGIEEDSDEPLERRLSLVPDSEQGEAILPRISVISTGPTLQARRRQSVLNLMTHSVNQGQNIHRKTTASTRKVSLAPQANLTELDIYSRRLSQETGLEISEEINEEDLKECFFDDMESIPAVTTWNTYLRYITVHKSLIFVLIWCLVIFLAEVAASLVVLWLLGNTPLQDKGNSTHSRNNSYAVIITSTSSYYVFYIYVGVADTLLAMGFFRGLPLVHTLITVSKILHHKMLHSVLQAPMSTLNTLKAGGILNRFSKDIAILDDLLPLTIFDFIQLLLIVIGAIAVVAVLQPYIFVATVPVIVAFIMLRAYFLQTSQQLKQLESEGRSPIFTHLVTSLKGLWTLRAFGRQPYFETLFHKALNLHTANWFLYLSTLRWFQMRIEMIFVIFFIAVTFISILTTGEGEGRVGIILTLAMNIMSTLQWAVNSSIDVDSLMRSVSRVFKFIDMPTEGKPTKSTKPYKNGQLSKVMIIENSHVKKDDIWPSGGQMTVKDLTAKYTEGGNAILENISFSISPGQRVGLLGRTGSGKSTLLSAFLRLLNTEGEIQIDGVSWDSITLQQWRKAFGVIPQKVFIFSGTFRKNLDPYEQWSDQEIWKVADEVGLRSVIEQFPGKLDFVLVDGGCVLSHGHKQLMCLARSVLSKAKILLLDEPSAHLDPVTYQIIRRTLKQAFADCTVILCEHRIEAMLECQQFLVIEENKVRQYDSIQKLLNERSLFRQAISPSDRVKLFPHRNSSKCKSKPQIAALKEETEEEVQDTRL

Structure (SMILES) | % Activation (ΔF508-CFTR [1]; [3]) [%] | EC50 (ΔF508-CFTR [1]; [4]) [nM] | % Activation (ΔF508-CFTR [2]; [5]) [%] | EC50 (ΔF508-CFTR [2]; [6]) [nM] | EC50 (ΔF508-CFTR [1]) [nM] | EC50 (ΔF508-CFTR [2]) [nM]
CN(C)S(=O)(=O)NC(=O)c1cc(OCC2CCN(C3CCOCC3)CC2)c2c(C3CCC3)nn(-c3ccc(F)cc3)c2n1 [Compound 619, 3-cyclobutyl-N-(dimethylsulfamoyl)-1-(4-fluorophenyl)-4-{[1-(oxan-4-yl)piperidin-4-yl]methoxy}-1H-pyrazolo[3,4-b]pyridine-6-carboxamide] | 277.25 | 375 | 102.8 | 680 | – | –
CCOc1nccc(-n2nc(C3CCC3)c3c(N4CCC(N5CCOCC5)CC4)cc(C(=O)NS(=O)(=O)N(C)C)nc32)n1 [Compound 622, 3-cyclobutyl-N-(dimethylsulfamoyl)-1-(2-ethoxypyrimidin-4-yl)-4-[4-(morpholin-4-yl)piperidin-1-yl]-1H-pyrazolo[3,4-b]pyridine-6-carboxamide] | 251.25 | 309 | 89.445 | 568 | – | –
CC(C)Oc1nn(C2CCCCC2)c2nc(C(=O)NS(C)(=O)=O)cc(-c3ccc(C(=O)N4CC5CNCC5C4)cc3)c12 (stereo not drawn) [Compound 631, 1-cyclohexyl-4-[4-(hexahydropyrrolo[3,4-c]pyrrole-2(1H)-carbonyl)phenyl]-N-(methanesulfonyl)-3-[(propan-2-yl)oxy]-1H-pyrazolo[3,4-b]pyridine-6-carboxamide] | 352.63 | 2990 | 122.53 | 3340 | – | –
COC1CCN(Cc2ccc(-c3cc(C(=O)NS(C)(=O)=O)nc4c3c(OC(C)C)nn4C3CCCCC3)cc2)CC1 [Compound 635, 1-cyclohexyl-N-(methanesulfonyl)-4-{4-[(4-methoxypiperidin-1-yl)methyl]phenyl}-3-[(propan-2-yl)oxy]-1H-pyrazolo[3,4-b]pyridine-6-carboxamide] | 449.25 | 73.9 | 216.38 | 155 | – | –
CC(C)Oc1nn(C2CCCCC2)c2nc(C(=O)NS(C)(=O)=O)cc(-c3ccc(CN4CC5CN(C)CC5C4)cc3)c12 (stereo not drawn) [Compound 636, 1-cyclohexyl-N-(methanesulfonyl)-4-{4-[(5-methylhexahydropyrrolo[3,4-c]pyrrol-2(1H)-yl)methyl]phenyl}-3-[(propan-2-yl)oxy]-1H-pyrazolo[3,4-b]pyridine-6-carboxamide] | 388.85 | 434 | 182.7 | 573 | – | –
CC(C)Oc1nn(C2CCCCC2)c2nc(C(=O)NS(C)(=O)=O)cc(-c3ccc(C(=O)N4CC5CN(C)CC5C4)cc3)c12 (stereo not drawn) [Compound 637, 1-cyclohexyl-N-(methanesulfonyl)-4-[4-(5-methylhexahydropyrrolo[3,4-c]pyrrole-2(1H)-carbonyl)phenyl]-3-[(propan-2-yl)oxy]-1H-pyrazolo[3,4-b]pyridine-6-carboxamide] | 413.4 | 971 | 191.88 | 2500 | – | –
CC(C)Oc1nn(C2CCCCC2)c2nc(C(=O)NS(C)(=O)=O)cc(-c3ccc(C4(C#N)CCN(C)CC4)cc3)c12 [Compound 639, 4-[4-(4-cyano-1-methylpiperidin-4-yl)phenyl]-1-cyclohexyl-N-(methanesulfonyl)-3-[(propan-2-yl)oxy]-1H-pyrazolo[3,4-b]pyridine-6-carboxamide] | – | – | – | – | 74.5 | 132
CC(C)Oc1nn(C2CCCCC2)c2nc(C(=O)NS(C)(=O)=O)cc(-c3ccc(C(=O)N4CC(N(C)C)C4)cc3)c12 [Compound 640, 1-cyclohexyl-4-{4-[3-(dimethylamino)azetidine-1-carbonyl]phenyl}-N-(methanesulfonyl)-3-[(propan-2-yl)oxy]-1H-pyrazolo[3,4-b]pyridine-6-carboxamide] | 416.48 | 107 | 203.62 | 175 | – | –
CC(C)Oc1nn(C2CCCCC2)c2nc(C(=O)NS(C)(=O)=O)cc(-c3ccc(CN4CCN(C)CC45COC5)cc3)c12 [Compound 641, 1-cyclohexyl-N-(methanesulfonyl)-4-{4-[(8-methyl-2-oxa-5,8-diazaspiro[3.5]nonan-5-yl)methyl]phenyl}-3-[(propan-2-yl)oxy]-1H-pyrazolo[3,4-b]pyridine-6-carboxamide] | 443.12 | 46.3 | 205.35 | 74.9 | – | –
CCN1CCN(Cc2ccc(-c3cc(C(=O)NS(C)(=O)=O)nc4c3c(OC(C)C)nn4C3CCCCC3)cc2)CC1 [Compound 642, 1-cyclohexyl-4-{4-[(4-ethylpiperazin-1-yl)methyl]phenyl}-N-(methanesulfonyl)-3-[(propan-2-yl)oxy]-1H-pyrazolo[3,4-b]pyridine-6-carboxamide] | 430.9 | 97.3 | 222 | 235 | – | –
CC(C)Oc1nn(C2CCCCC2)c2nc(C(=O)NS(C)(=O)=O)cc(-c3ccc(CN4CCC(N(C)C)CC4)cc3)c12 [Compound 643, 1-cyclohexyl-4-(4-{[4-(dimethylamino)piperidin-1-yl]methyl}phenyl)-N-(methanesulfonyl)-3-[(propan-2-yl)oxy]-1H-pyrazolo[3,4-b]pyridine-6-carboxamide] | 445.25 | 497 | 181.65 | 506 | – | –
COC1CCN(C2CCN(c3cc(C(=O)NS(C)(=O)=O)nc4c3c(OC(C)C)nn4-c3ccc(F)cc3)CC2)CC1 [Compound 644, 1-(4-fluorophenyl)-N-(methanesulfonyl)-4-(4-methoxy[1,4'-bipiperidin]-1'-yl)-3-[(propan-2-yl)oxy]-1H-pyrazolo[3,4-b]pyridine-6-carboxamide] | 529.95 | 160 | 266.9 | 253 | – | –
CNS(=O)(=O)NC(=O)c1cc(N2CCC(N3CCC(F)CC3)CC2)c2c(C3CCC3)nn(-c3ccc(F)cc3)c2n1 [Compound 650, 3-cyclobutyl-4-(4-fluoro[1,4'-bipiperidin]-1'-yl)-1-(4-fluorophenyl)-N-(methylsulfamoyl)-1H-pyrazolo[3,4-b]pyridine-6-carboxamide] | 592.45 | 96.4 | 385.4 | 115 | – | –
CC(C)N1CCN(C2CCN(c3cc(C(=O)NS(=O)(=O)N4CCC4)nc4c3c(C3CCC3)nn4-c3ccc(F)cc3)CC2)CC1 [Compound 651, N-(azetidine-1-sulfonyl)-3-cyclobutyl-1-(4-fluorophenyl)-4-{4-[4-(propan-2-yl)piperazin-1-yl]piperidin-1-yl}-1H-pyrazolo[3,4-b]pyridine-6-carboxamide] | 532.4 | 128 | 317.85 | 206 | – | –
CN(C)S(=O)(=O)NC(=O)c1cc(N2CCC(N3CCOCC3)CC2)c2c(C3CCC3)nn(-c3cccc(OC(F)F)c3)c2n1 [Compound 652, 3-cyclobutyl-1-[3-(difluoromethoxy)phenyl]-N-(dimethylsulfamoyl)-4-[4-(morpholin-4-yl)piperidin-1-yl]-1H-pyrazolo[3,4-b]pyridine-6-carboxamide] | 499.65 | 24.9 | 289.03 | 84.1 | – | –
CN(C(=O)c1cc(N2CCC(N3CCOCC3)CC2)c2c(C3CCC3)nn(-c3ccccc3)c2n1)S(C)(=O)=O [Compound 656, 3-cyclobutyl-N-(methanesulfonyl)-N-methyl-4-[4-(morpholin-4-yl)piperidin-1-yl]-1-phenyl-1H-pyrazolo[3,4-b]pyridine-6-carboxamide] | 289.68 | – | 102.63 | – | – | –
COCC1CCN(c2cc(C(=O)N(C)S(C)(=O)=O)nc3c2c(C2CCC2)nn3-c2ccccc2)CC1 [Compound 657, 3-cyclobutyl-N-(methanesulfonyl)-4-[4-(methoxymethyl)piperidin-1-yl]-N-methyl-1-phenyl-1H-pyrazolo[3,4-b]pyridine-6-carboxamide] | 270.75 | 197 | 98 | 281 | – | –
CCS(=O)(=O)N(C)C(=O)c1cc(N2CCC(N3CCOCC3)CC2)c2c(C3CCC3)nn(-c3ccccc3)c2n1 [Compound 658, 3-cyclobutyl-N-(ethanesulfonyl)-N-methyl-4-[4-(morpholin-4-yl)piperidin-1-yl]-1-phenyl-1H-pyrazolo[3,4-b]pyridine-6-carboxamide] | 270.6 | – | 99.025 | – | – | –
